Here are results for four compounds from patent publication US5844000A, “Propenone oxime ethers and pharmaceutical compositions containing them” (Sanofi, priority 1997, dated 1998).

Structures are written as SMILES. “Also recorded” adds a separate entry of the source.

Series [1] is described as follows: Plasma metabolite profiling in humans. It counts as in vivo, human. The settings on record: result in words; time points up to 48 hr. The protocol:
(§1) The objective of this study was to quantitate the biotransformation of ^14 C-SR 46349B in humans. Six healthy male volunteers were treated orally with a single 30 mg dose of ^14 C-SR 46349B (corresponding to 35.4 mg of the salified compound), labeled on the C-1 position of the propenyl chain with ^14 C (1.375 MBq). Excretion-balance, plasma and blood pharmacokinetics of radioactivity, and clinical safety/tolerance were reported. Plasma, urine and fecal homogenates were analyzed for quantitation and identification of SR 46349B and metabolites.
Subjects were fasted overnight prior to the morning of ^14 C-SR 46349B administration. […]
Pools of plasma for each collection time were prepared by mixing equal amounts of plasma from all subjects. This made available enough plasma at each time point to quantitate metabolites. […] Due to low amounts of radioactivity in plasma, five concentrated extracts from the same time point were combined. […] Pools for each collection time were analyzed in triplicate.
Metabolite quantitation was conducted with an HP1090 HPLC system (Hewlett Packard, Wilmington, Del. HPLC eluant was fraction collected (0.33 mL/fraction using a FOXY™ Model 200 fraction collector; Isco, Lincoln, Nebr.). Fractions were mixed with 5 mL of Biofluor cocktail and then counted using a Tri-Carb 2700TR liquid scintillation counter (Packard, Meriden, Conn.). […]

A short description of series [2]: Human pharmacokinetics: plasma concentration of SR 46349 (HPLC-UV) after single oral dose of 14C-SR 46349B. The series is classed as in vivo. The protocol:
as §1
(§2) Subjects were fasted overnight prior to the morning of ^14 C-SR 46349B administration. All subjects received a single oral 30 mg dose of ^14 C-SR 46349B (corresponding to 35.4 mg of the […] compound) in a single gelatin capsule. The capsule was dropped directly in the mouth and swallowed with 150 mL of tap water at about 8:00 AM. Ingestion of the capsule was verified by inspection of the oral cavity of each subject.
(§3) Blood samples were obtained at 0, 0.5, 1, 1.5, 2, 2.5, 3, 4, 6, 8, 10, 12, 16, 24, 36, 48, 72, 96, 120, 144, 168, 192, 216, 240, 264, 288 and 312 hr after dosing. For each sample, approximately 7 mL of blood (22 mL at 2, 3, 4, 8, 12, 24 and 48 hrs after dosing) was drawn into polypropylene collection tubes containing lithium heparin (as an anticoagulant). Following the removal of 1 mL of blood for radiocarbon analysis, samples were centrifuged (within 30 min) at 2000-3000×g for 10 min and the plasma transferred into polypropylene transport tubes. All samples were stored frozen (≤-18° C.) until analysis.
The concentration of SR 46349 in plasma samples was determined using a validated HPLC method with UV detection at 320 nm. […] The samples were dried at room temperature and resuspended in 0.15 mL of mobile phase and 0.05 mL was analyzed. […]
Unknown concentrations of SR 46349 were quantified by reference to a 1/y^2 weighted regression analysis of the peak-area ratio (SR 46349/internal standard) versus concentration of the calibration curve standards. […]
Model-independent pharmacokinetic parameters for plasma concentrations of SR 46349 were calculated for each subject. The maximum observed plasma concentration (Cmax) of SR 46349 and its corresponding time (tmax) were determined by visual inspection of individual concentration-time profiles. Half-life (t 1/2) was calculated from the ratio of ln(2)/λZ, where λZ is the regressed slope of the terminal phase. The area under the plasma concentration of SR 46349-versus-time-curves (AUC(0-t)) was calculated using the trapezoidal rule. AUC was calculated for the sum of AUC(0-t) and Cp(1)/λZ wherein Cp(1) is the last measurable concentration time point. […]

Series [3] can be described thus: Biotransformation: excreted radioactivity (urine and feces) as SR 46349 and metabolites in humans. The series is classed as in vivo, human. The settings on record: for percentage of excreted radioactivity: urine and feces, excreted (recovered) radioactivity. As to the method:
Excretion-balance, plasma and blood pharmacokinetics of radioactivity, and clinical safety/tolerance were reported.
The capsule was dropped directly in the mouth and swallowed with 150 mL of tap water at about 8:00 AM. Ingestion of the capsule was verified by inspection of the oral cavity of each subject.
A representative pool of urine was prepared for each subject by mixing aliquots from each collection interval in proportion to the percent of radioactivity present in each collection interval.
A representative pool of fecal homogenate was prepared for each subject by mixing aliquots from each collection interval in proportion to the percent of radioactivity present in each collection interval.
Metabolite quantitation was conducted with an HP1090 HPLC system (Hewlett Packard, Wilmington, Del. HPLC eluant was fraction collected (0.33 mL/fraction using a FOXY™ Model 200 fraction collector; Isco, Lincoln, Nebr.). Fractions were mixed with 5 mL of Biofluor cocktail and then counted using a Tri-Carb 2700TR liquid scintillation counter (Packard, Meriden, Conn.).
Sample extraction and HPLC column recoveries were calculated using measured radioactivity in samples, sample extracts and HPLC eluants. Recoveries of 100% were based on the expected amount of radioactivity in a sample prior to extraction or HPLC analysis.
Urinary and fecal metabolites are expressed as a percentage of the radioactivity in each matrix and as a percentage of excreted (recovered) radioactivity. Values were corrected for total experimental recoveries.

A short description of series [4]: Fecal excretion and fecal metabolite profiling in humans. The settings on record: up to 276 hr post-dose, % of administered dose. The series is classed as in vivo, human. As to the method: as §1
(§4) Subjects were fasted overnight prior to the morning of ^14 C-SR 46349B administration. All subjects received a single oral 30 mg dose of ^14 C-SR 46349B (corresponding to 35.4 mg of the unsalified compound) in a single gelatin capsule. […]
(§5) Aliquots of plasma and urine samples were added directly to Ready-Safe scintillant (9 mL), hand shaken for a few seconds and left for at least 2 hours prior to counting. […] Radioactivity assays were performed with a Packard Instruments Tri-Carb, Model 1600TR Liquid Scintillation System. […]
A representative pool of fecal homogenate was prepared for each subject by mixing aliquots from each collection interval in proportion to the percent of radioactivity present in each collection interval. Pools were prepared to represent approximately 95% of total collected fecal radioactivity. […]

A short description of series [5]: Urinary excretion and urinary metabolite profiling in humans. The series is classed as in vivo, human. The settings on record: up to 336 hr post-dose, % of administered dose. The protocol:
as §1, §4, §5
A representative pool of urine was prepared for each subject by mixing aliquots from each collection interval in proportion to the percent of radioactivity present in each collection interval. Pools were prepared to represent approximately 95% of total collected urinary radioactivity. […]

Series [6] in a line: Human pharmacokinetics: plasma radioactivity after single oral dose of 14C-SR 46349B. It counts as in vivo. The protocol:
as §1, §2, §3
Aliquots of plasma and urine samples were added directly to Ready-Safe scintillant (9 mL), hand shaken for a few seconds and left for at least 2 hours prior to counting. Aliquots of fecal homogenates were weighed in a Combusto-Cone fitted with a CombustoPad. The samples were allowed to dry overnight before combustion in a Packard Sample Oxidizer, Model 307 (Meriden, Conn.). Carbo-Sorb and Permafluor E^+ were used as scintillants (10 mL). Samples mixed with scintillant were left for at least 4 hours prior to counting. Radioactivity assays were performed with a Packard Instruments Tri-Carb, Model 1600TR Liquid Scintillation System. The LOQ was set at 12 cpm above background.

The test system of another series is 5-HT2. Conditions: result in words; U.S. Pat. No. 5,166,416; cited from earlier work.

Regarding `CN(C)CCON=C(/C=C/c1ccc(O)cc1)c1ccccc1F` [SR 46349], the “plasma concentration compared with any single metabolite” value in series [1] is “always higher than any individual metabolite”. Moreover, the half-life in series [2] (human, po, 30 mg, single oral 30 mg, mean (±SD), read-out: terminal elimination half-life of SR 46349 (converted)) was ~23 h. The peak concentration (Cmax) in series [2] (human, single oral 30 mg 14C-SR 46349B, healthy male volunteers, capsule, fasted, read-out: Cmax of SR 46349 in plasma, mean (±SD)) is 50 ng/mL. Further, the AUC in series [2] (human, single oral 30 mg, read-out: mean plasma AUC for SR 46349 (±SD), as restated in the discussion) is 1200 ng·h/mL. Besides, in series [2] (single oral 30 mg, mean (±SD)), the “terminal elimination half-life of SR 46349” value is 22.9 (±7.3) hr. Besides, the “extent and pathways of metabolism” value in series [3] (result in words, human) was “extensively metabolized; also recorded: N-oxidation, N-demethylation, sulfation and glucuronidation; also recorded: oxidation of SR 46349 (N-oxidation and N-demethylation) appears to be the major mechanism of metabolic clearance”. The “percentage of excreted radioactivity” value in series [3] was “approximately 6%”.
On to `CN(C)CCO/N=[14C](/C=C/c1ccc(O)cc1)c1ccccc1F` [^14 C-SR 46349B], for which the “cumulative fecal excretion of radioactivity, mean (±SD)” value in series [4] is listed as 21.6 (±3.5) %. The “cumulative fecal excretion of radioactivity, range” value in series [4] (range over subjects) was in the range of 16.4 to 26.5%. Also, in series [5], the “cumulative urinary excretion of radioactivity, mean (±SD)” value is 70.3 (±4.6) %. In addition, in series [5] (range over subjects), the “cumulative urinary excretion of radioactivity, range” value was 63.1 to 77.1%. Moreover, the “maximal plasma concentrations of radioactivity relative to plasma concentrations of SR 46349” value in series [6] (at similar tmax values, radioactivity / SR 46349) is reported as “approximately 3 times”. Besides, in series [6] (radioactivity / SR 46349), the “AUC of plasma radioactivity relative to mean plasma AUC for SR 46349” value is “approximately 11 times”. The “Cmax of plasma radioactivity, mean (±SD)” value in series [6] (single oral 30 mg 14C-SR 46349B, total radioactivity) is 0.16 (±0.02) mg eq/L. Also, the “AUC of plasma radioactivity, mean (±SD)” value in series [6] (single oral 30 mg, total radioactivity) is recorded as 13.7 (±2. 1) mg eq.circle-solid.hr/L.
As to `C[N+](C)([O-])CCON=C(/C=C/c1ccc(O)cc1)c1ccccc1F` [H22 & H23], the “percentage of excreted radioactivity” value in series [3] was “approximately 23%”.
As for `CN(C)CCON=C(/C=C/c1ccc(O)cc1)c1ccccc1F` [SR 46349B, Trans 1-N,N-dimethylaminoethoxyimino 1-(2-fluorophenyl)-3-(4-hydroxyphenyl)2-propene hemifumarate], the “plasma concentration compared with any single metabolite” value in series [1] is listed as “higher than any single metabolite, except at the 48 hr time point”. For the same compound, in the series with 5-HT2, the 5-HT2 antagonist activity entry is listed as “potent 5-HT2 antagonist”.
